Data published in article PMC10307063, “Bioprospection of Selected Plant Secondary Metabolites as Modulators of the Proteolytic Activity of Plasmodium falciparum Plasmepsin V” (BioMed Research International, 2023).
Where a SMILES comes first, the peptide text is derived from it. [ ]: non-standard residue; d: D form. The star is where a group is joined. Sta = CC(C)C[C@H](N)[C@@H](O)CC(=O)O; Isovaleryl = CC(C)CC(=O)*

Assays:
[1] = target: T1, Plasmodium falciparum plasmepsin V (PfPMV) (Plasmodium falciparum, UniProt Q8I6Z5); experiment: casein proteolysis assay with recombinant enzyme (A280), Lineweaver-Burk kinetics; format: biochemical
T1 construct: gene PMV; Trx-PfPMVp37

[2] = target: T1, Plasmodium falciparum plasmepsin V (PfPMV); experiment: casein proteolysis assay with recombinant enzyme (A280); format: biochemical

T1 sequence (Q8I6Z5 whole entry): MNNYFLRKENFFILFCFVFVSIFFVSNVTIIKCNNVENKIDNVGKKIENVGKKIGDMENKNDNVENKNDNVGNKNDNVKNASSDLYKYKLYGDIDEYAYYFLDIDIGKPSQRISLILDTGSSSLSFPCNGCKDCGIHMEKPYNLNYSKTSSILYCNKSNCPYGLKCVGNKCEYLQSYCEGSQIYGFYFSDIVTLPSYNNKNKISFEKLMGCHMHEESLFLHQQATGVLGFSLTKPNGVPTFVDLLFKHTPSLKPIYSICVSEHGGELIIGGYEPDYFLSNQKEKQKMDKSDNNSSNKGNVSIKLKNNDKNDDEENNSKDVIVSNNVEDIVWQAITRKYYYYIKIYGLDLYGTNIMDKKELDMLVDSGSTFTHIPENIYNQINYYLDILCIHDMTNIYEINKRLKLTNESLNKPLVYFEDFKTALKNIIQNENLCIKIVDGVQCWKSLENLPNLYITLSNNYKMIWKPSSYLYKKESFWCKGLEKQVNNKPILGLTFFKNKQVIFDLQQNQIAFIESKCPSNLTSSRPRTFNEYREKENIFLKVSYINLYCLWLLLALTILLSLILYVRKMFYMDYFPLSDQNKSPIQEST

Compound	IC50 [1] [µM]	IC50 [2] [µM]
O=c1c(O)c(-c2ccc(O)cc2)oc2cc(O)cc(O)c12 [kaempferol]	22.4	
CC(C)=CC[C@@H](O)C1=CC(=O)c2c(O)ccc(O)c2C1=O [shikonin]	43.3	
O=c1c(O)c(-c2ccc(O)c(O)c2)oc2cc(O)cc(O)c12 [quercetin]	53.1	
CC(C)CC(=O)N[C@H](C(=O)N[C@H](C(=O)N[C@@H](CC(C)C)[C@@H](O)CC(=O)N[C@@H](C)C(=O)N[C@@H](CC(C)C)[C@@H](O)CC(=O)O)C(C)C)C(C)C [pepstatin] (Isovaleryl-VV[Sta]A[Sta]-OH)		62.6
